Data taken from publication PMC6150298, “Natural Deep Eutectic Solvents (NADES) to Enhance Berberine Absorption: An In Vivo Pharmacokinetic Study” (Molecules : A Journal of Synthetic Chemistry and Natural …, 2017).
Each block holds one compound with its values, some of them ahead of it.

How the values were obtained:
[1] = Solubility of berberine in NADES and reference solvents (HPLC-DAD); format: physicochemical
Procedure: Samples were placed on a magnetic stirrer (Stuart, Bibby Scientific Ltd., Stone, Staffordshire, UK) at 22 °C for 1 h, then centrifuged for 21 min at 13,000 rpm with a 5415 R centrifuge (Eppendorf, Hamburg, Germany). For quantitative measurement of solubilized berberine, a portion (100 μL) of the clear supernatant obtained after centrifugation was diluted 1:5 (v/v) in ethanol.
For quantification, stock standard solution of berberine (100 μg/mL) was prepared dissolving the analytical standard in methanol using an ultrasonic bath. A calibration curve was obtained injecting standard solutions of berberine at different concentrations, namely 50, 25, 10, 5 and 1 μg/mL. The following calibration curve was obtained: […] (R^2 = 0.9997). The Limit of Quantification (LOQ) was 1 μg/mL.
For HPLC-DAD analysis, an Agilent series 1260 HPLC instrument (Agilent, Cernusco Sul Naviglio, MI, Italy) equipped with a quaternary pump, a diode-array detector, an auto sampler and a column oven compartment was used. Analyses were performed on Eclipse XDB C8 column (5 μm, 4.6 mm × 150 mm, Agilent). The mobile phase was (A) water–formic acid (99:1 v/v) and (B) acetonitrile. A gradient program was used as follows: 0 → 11th min: A:B (90:10) → A:B (0:100) 11 → 12th min: A:B (0:100) → A:B (0:100) 12 → 12, 10th min: A:B (0:100) → A:B (90:10) 12, 10 → 14th min: A:B (90:10) → A:B (90:10). The mobile phase flow rate was 1 mL/min and the injection volume was 10 μL. The chromatogram was recorded at 350 nm and spectral data for all peaks were obtained in the range of 190–400 nm. The retention time of berberine under these analysis conditions was 6.16 min.

mice = conditions: cited from earlier work
rat = conditions: cited from earlier work
[2] = human subjects, single oral dose of 500 mg of berberine hydrochloride, cited from earlier work; for time after which the plasma level reaches a plateau: plateau persisted up to 24 h
[3] = set-up: method as in PMID 26092760; conditions: rats, single oral administration of berberine 200 mg/kg; cited from earlier work

Berberine Solubility at 22 °C [1]: 2750 ± 50 µg/mL
Compound: Ethanol

Compound: NC(N)=O [urea]
LD50 (mice): 11,000 mg/kg

Compound: CC(O)C(=O)O (centres unmarked) [lactic acid]
LD50 (rat): 3543 mg/kg

Berberine Solubility at 22 °C [1]: 2100 ± 50 µg/mL
Compound: Water

Compound: O=C(O)CC(O)C(=O)O (centres unmarked) [malic acid]
LD50 (rat): 1600 mg/kg

Compound: COc1cc2c(cc1O)CC[n+]1cc3c(OC)c(OC)ccc3cc1-2 [jatrorrhizine]
plasma levels [2]: lower than 0.1 nM | time after which the plasma level reaches a plateau [2]: 2 h

solubility at 1 h ([1]; water, 22 °C): 2100 µg/mL
Compound: COc1ccc2cc3[n+](cc2c1OC)CCc1cc2c(cc1-3)OCO2 [berberine, Berberine]
plasma levels [2]: lower than 0.1 nM | time after which the plasma level reaches a plateau [2]: one | total recovery of native compounds [3]: 22.83%
